For one data set, the target named is Aβ1–42 (Homo sapiens, UniProt P05067). Briefly: Aβ1–42 aggregation inhibition, ThT fluorescence assay. The data set is classed as biochemical. Conditions: 10 μmol/L ligand and 1.5 μmol/L Aβ1–42; mean ± SD (n ≥ 3).
The next data set is described as follows: BBB-PAMPA permeability. As to conditions: pH 7.4, 4 h, 25 °C, brain sink buffer; for Papp at 4 h, 100 μmol/L: PAMPA, pH 7.4, BBB–PAMPA permeability Papp (mean ± SD).
Data set [1] can be described thus: DPPH radical-scavenging assay. Conditions: means ± SEM (n = 2, in triplicates); for EC50: read-out: Radical-scavenging DPPH assay EC50.
The target in another data set is hBChE (Homo sapiens, UniProt P06276). Briefly: hBChE inhibition, Ellman's method. The data set is classed as biochemical. As to conditions: IC50 ± SEM hBChE, Table 1; n = 3, in triplicates. In general terms: DTNB colorimetry detects thiols as they appear.
Chain of hBChE (P06276 29-602): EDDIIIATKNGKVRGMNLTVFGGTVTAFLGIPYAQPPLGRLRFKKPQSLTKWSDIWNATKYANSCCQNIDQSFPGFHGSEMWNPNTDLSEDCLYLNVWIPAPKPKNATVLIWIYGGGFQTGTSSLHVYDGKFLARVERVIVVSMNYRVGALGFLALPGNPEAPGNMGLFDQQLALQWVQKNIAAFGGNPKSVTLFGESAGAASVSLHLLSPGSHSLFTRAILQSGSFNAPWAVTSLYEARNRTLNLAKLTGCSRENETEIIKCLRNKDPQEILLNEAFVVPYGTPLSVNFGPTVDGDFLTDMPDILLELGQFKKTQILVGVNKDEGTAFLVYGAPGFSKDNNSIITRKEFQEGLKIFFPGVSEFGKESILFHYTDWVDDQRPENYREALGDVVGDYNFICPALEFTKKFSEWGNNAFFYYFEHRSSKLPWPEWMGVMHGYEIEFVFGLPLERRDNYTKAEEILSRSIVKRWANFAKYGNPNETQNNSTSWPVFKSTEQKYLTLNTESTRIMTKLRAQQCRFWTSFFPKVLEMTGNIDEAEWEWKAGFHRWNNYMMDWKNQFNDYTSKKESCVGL
The target of a further data set is T1, hMAO-B (Homo sapiens, UniProt P27338).
T1 sequence (P27338 1-520): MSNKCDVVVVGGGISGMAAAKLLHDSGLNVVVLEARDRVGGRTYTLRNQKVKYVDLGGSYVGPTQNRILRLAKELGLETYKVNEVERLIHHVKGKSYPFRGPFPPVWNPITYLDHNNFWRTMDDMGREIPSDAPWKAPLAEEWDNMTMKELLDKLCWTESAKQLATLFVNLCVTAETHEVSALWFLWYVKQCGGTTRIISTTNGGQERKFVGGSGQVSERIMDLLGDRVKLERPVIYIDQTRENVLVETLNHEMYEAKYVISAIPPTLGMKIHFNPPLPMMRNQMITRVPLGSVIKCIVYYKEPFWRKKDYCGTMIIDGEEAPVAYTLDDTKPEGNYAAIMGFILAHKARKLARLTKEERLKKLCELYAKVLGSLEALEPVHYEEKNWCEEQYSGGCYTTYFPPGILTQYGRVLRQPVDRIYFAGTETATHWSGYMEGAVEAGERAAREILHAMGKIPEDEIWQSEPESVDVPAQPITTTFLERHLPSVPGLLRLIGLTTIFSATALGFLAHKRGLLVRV
Briefly: hMAO-B inhibition, horseradish-Amplex Red coupled assay. The data set is classed as biochemical.

The target of another data set is T2, hMAO-A (Homo sapiens, UniProt P21397).
T2 sequence (P21397 1-527): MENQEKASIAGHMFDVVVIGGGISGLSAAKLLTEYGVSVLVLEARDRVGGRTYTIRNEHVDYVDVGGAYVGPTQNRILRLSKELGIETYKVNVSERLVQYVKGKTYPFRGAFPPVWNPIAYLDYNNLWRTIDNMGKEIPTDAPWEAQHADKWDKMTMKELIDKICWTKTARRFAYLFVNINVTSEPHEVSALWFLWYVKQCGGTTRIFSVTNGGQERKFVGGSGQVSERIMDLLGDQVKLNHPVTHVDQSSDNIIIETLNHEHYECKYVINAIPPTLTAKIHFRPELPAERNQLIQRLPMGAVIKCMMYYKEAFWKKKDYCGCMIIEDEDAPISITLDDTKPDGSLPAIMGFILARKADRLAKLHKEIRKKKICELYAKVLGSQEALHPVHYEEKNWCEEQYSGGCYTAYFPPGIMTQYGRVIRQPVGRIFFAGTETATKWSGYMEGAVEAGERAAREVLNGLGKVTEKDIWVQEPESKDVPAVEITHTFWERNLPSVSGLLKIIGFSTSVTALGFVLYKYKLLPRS
Briefly: hMAO-A inhibition, horseradish-Amplex Red coupled assay. The data set is classed as biochemical.

For a further data set, the system named is mice. Briefly: Rotarod test. The data set is classed as in vivo. As to conditions: 2.5 mg/kg. Background: Falling from the rotarod earlier than controls is read as motor impairment.
Data set [2] relates to scopolamine-induced amnesic mice. Briefly: Passive avoidance. The data set is classed as in vivo. Conditions: doses of one and 2 mg/kg; P < 0.001.
The target in a further data set is hAChE (Homo sapiens, UniProt P22303). Briefly: hAChE inhibition, Ellman's method. The data set is classed as biochemical.
Chain of hAChE (P22303 32-614): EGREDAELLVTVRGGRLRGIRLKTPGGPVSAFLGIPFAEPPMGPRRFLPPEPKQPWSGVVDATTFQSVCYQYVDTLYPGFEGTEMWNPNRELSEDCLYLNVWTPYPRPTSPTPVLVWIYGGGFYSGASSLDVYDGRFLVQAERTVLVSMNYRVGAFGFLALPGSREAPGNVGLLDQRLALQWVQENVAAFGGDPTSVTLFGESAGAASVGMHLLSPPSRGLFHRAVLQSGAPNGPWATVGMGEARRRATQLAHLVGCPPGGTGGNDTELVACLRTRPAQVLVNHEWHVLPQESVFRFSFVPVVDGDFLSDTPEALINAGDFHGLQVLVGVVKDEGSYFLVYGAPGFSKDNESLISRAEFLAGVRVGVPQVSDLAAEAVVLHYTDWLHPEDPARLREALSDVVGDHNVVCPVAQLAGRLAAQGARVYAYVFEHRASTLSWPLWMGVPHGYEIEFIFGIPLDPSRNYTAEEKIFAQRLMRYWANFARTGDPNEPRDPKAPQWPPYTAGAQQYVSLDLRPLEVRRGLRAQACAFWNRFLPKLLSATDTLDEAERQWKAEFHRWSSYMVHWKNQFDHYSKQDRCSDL
Data set [3] has as its target horse serum BChE (eqBChE). Conditions: cited from earlier work.
In data set [4] the target is Electrophorus electricus AChE (eeAChE). Conditions: cited from earlier work.
The test system of another data set is murine AChE. Conditions: cited from earlier work.

Chain of Aβ1–42 (P05067 672-713): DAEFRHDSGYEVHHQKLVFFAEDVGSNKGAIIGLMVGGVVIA

For `C#CCN1CCN(CCCOc2cccc3ccc(C=O)nc23)CC1` [QN 32, 8-(3-(4-(Prop-2-yn-1-yl)piperazin-1-yl)propoxy)quinoline-2-carbaldehyde], the “Inhibition of Aβ1–42 aggregation” value at Aβ1–42 amounted to 40.7 ± 2.4%∗. In the data set “BBB-PAMPA permeability”, the apparent permeability (Papp) – broadly, the rate of passage across a membrane or cell layer, normalised by area and donor concentration – at 4 h, 100 μmol/L was determined as 50.3 ± 2.8 ×10⁻⁶ cm/s; the “BBB–PAMPA permeability −LogPe” value was 4.3 log [cm/s]. Further, the “Radical-scavenging DPPH assay EC50” value in data set [1] is on record as “n.a. ^d (n.a., not active–% DPPH reduced at 100 μmol/L concentration lower than 10%)”.
`CC(C)(C)/[N+]([O-])=C/c1ccc2cccc(O)c2n1` [QN 18, (Z)-N-tert-Butyl-1-(8-hydroxyquinolin-2-yl)methanimine oxide]: the “Inhibition of Aβ1–42 aggregation” value at Aβ1–42 is “n.i. ^e (n.i., no inhibition <20%)”. Moreover, in the data set “BBB-PAMPA permeability”, the Papp at 4 h, 100 μmol/L worked out at 43.7 ± 4.1 ×10⁻⁶ cm/s and the “BBB–PAMPA permeability −LogPe” value is 4.4 log [cm/s]. Further, in data set [1], the EC50 (usually the concentration at which the effect is half-maximal) was 119 ± 1.2 µM.
In the case of `C#CCN1CCN(CCCOc2cccc3cc(/C=[N+](\[O-])Cc4ccccc4)c(Cl)nc23)CC1` [QN 8, (Z)-N-Benzyl-1-(2-chloro-8-(3-(4-(prop-2-yn-1-yl)piperazin-1-yl)propoxy)quinolin-3-yl)methanimine oxide], the IC50 (commonly the concentration that inhibits the measured activity by half) at hBChE came out at 14.8 ± 2.1 µM; against hMAO-B it was 13.8 ± 1.8 µM; on hMAO-A, 14.9 ± 1.2 µM.
As for `[O-]/[N+](=C\c1cc2cccc(O)c2nc1Cl)Cc1ccccc1` [QN 12, (Z)-N-Benzyl-1-(2-chloro-8-hydroxyquinolin-3-yl)methanimine oxide], the IC50 at hBChE turned out to be 10.7 ± 0.7 µM.
Consider `CCN(C)C(=O)Oc1cccc([C@H](C)N(C)C)c1` [rivastigmine, reference compound], for which the “motor effects shortly after administration” value with mice was “caused muscle tremor and transient motor coordination deficits”. Also, in data set [2], the “step-through latency in retention trial versus scopolamine-treated control” value is given as “significant differences”.
For `COc1cccc2cc(/C=[N+](\[O-])Cc3ccccc3)c(OCCCN3CCCCC3)nc12` [QN 2, (Z)-N-Benzyl-1-(8-methoxy-2-(3-(piperidin-1-yl)propoxy)quinolin-3-yl)methanimine oxide], the values for the IC50 at hBChE and at hAChE were 0.415 ± 0.0167 µM and 39.6 ± 6.1 µM, respectively.
For `COc1cccc2cc(/C=[N+](\[O-])C(C)(C)C)c(Cl)nc12` [QN 9, (Z)-N-tert-Butyl-1-(2-chloro-8-methoxyquinolin-3-yl)methanimine oxide], the IC50 at hBChE was 15.2 ± 1.1 µM.
Same read-out and setting: the same measure for `C#CCN1CCN(CCCOc2cccc3cc(/C=[N+](\[O-])C(C)(C)C)c(Cl)nc23)CC1` [QN 7, (Z)-N-tert-Butyl-1-(2-chloro-8-(3-(4-(prop-2-yn-1-yl)piperazin-1-yl)propoxy)quinolin-3-yl)methanimine oxide]: 13.3 ± 0.9 µM; for `COc1cccc2cc(/C=[N+](\[O-])C(C)(C)C)c(OCCCN3CCCCC3)nc12` [QN 1, (Z)-N-tert-Butyl-1-(8-methoxy-2-(3-(piperidin-1-yl)propoxy)quinolin-3-yl)methanimine oxide]: 0.707 ± 0.0454 µM.
For `CNC1=Nc2ccc(Cl)cc2C(c2ccccc2)=[N+]([O-])C1` [chlordiazepoxide], the Ki (as a rule, a dissociation constant, usually derived from enzyme kinetics or from competition with a known ligand) in data set [3] (read-out: eqBChE Ki) is 0.3 ± 0.04 µM; in data set [4] (read-out: eeAChE Ki), 50 ± 7 µM.
Take `C#CCN1CCN(CCCOc2cccc3ccc(/C=[N+](\[O-])C(C)(C)C)nc23)CC1` [QN 15, (Z)-N-tert-Butyl-1-(8-(3-(4-(prop-2-yn-1-yl)piperazin-1-yl)propoxy)quinolin-2-yl)methanimine oxide]: at Aβ1–42, the “Inhibition of Aβ1–42 aggregation” value was “n.i. ^e (n.i., no inhibition <20%)”. In the data set “BBB-PAMPA permeability”, the apparent permeability coefficient (Papp) at 4 h, 100 μmol/L is 72.2 ± 2.7 ×10⁻⁶ cm/s and the “BBB–PAMPA permeability −LogPe” value stood at 4.1 log [cm/s]. Further, in data set [1], the “Radical-scavenging DPPH assay EC50” value is on record as “n.a. ^d (n.a., not active–% DPPH reduced at 100 μmol/L concentration lower than 10%)”.
Take `CC(C)(C)/[N+]([O-])=C/c1ccccc1` [PBN, α-phenyl-tert-butylnitrone]: the IC50 in data set [3] (read-out: eqBChE IC50) was 478 ± 38 µM. Besides, the “eeAChE inhibition (in words)” value in [4] was “no inhibition”. Further, the “hAChE inhibition (in words)” value at hAChE is listed as “no inhibition”. For the same compound, in the data set with murine AChE, the “murine AChE Ki′” value was 2990 µM. Further, on murine AChE (read-out: murine AChE Ki), the Ki was 580 µM.
On hBChE, `C#CCN1CCN(CCCOc2nc3c(OC)cccc3cc2/C=[N+](\[O-])Cc2ccccc2)CC1` [QN 4, (Z)-N-Benzyl-1-(8-methoxy-2-(3-(4-(prop-2-yn-1-yl)piperazin-1-yl)propoxy)quinolin-3-yl)methanimine oxide] showed an IC50 of 3.06 ± 0.29 µM.
Regarding `CC(C)(C)/[N+]([O-])=C/c1cc2cccc(O)c2nc1Cl` [QN 11, (Z)-N-tert-Butyl-1-(2-chloro-8-hydroxyquinolin-3-yl)methanimine oxide], the 50% inhibitory concentration (IC50) on hBChE was 12.4 ± 0.7 µM.
Turning to `[O-]/[N+](=C\c1cc2cccc(OCCCN3CCCCC3)c2nc1Cl)Cc1ccccc1` [QN 6, (Z)-N-Benzyl-1-(2-chloro-8-(3-(piperidin-1-yl)propoxy)quinolin-3-yl)methanimine oxide], the half-inhibitory concentration (IC50) against hBChE stood at 10.2 ± 1.1 µM; against hMAO-B, 50.4 ± 4.5 µM; on hMAO-A, 106 ± 3.7 µM; against hAChE it was 68.6 ± 13.6 µM.
Consider `Oc1ccc(/C=C/c2cc(O)cc(O)c2)cc1` [resveratrol, reference compound], for which, in [1], the EC50 came to 50.1 µM.
At hBChE, `C#CCN1CCN(CCCOc2nc3c(OC)cccc3cc2/C=[N+](\[O-])C(C)(C)C)CC1` [QN 3, (Z)-N-tert-Butyl-1-(8-methoxy-2-(3-(4-(prop-2-yn-1-yl)piperazin-1-yl)propoxy)quinolin-3-yl)methanimine oxide] gave a half-inhibitory concentration (IC50) of 2.06 ± 0.04 µM.
On to `CC(C)(C)/[N+]([O-])=C/c1cc2cccc(OCCCN3CCCCC3)c2nc1Cl` [QN 5, (Z)-N-tert-Butyl-1-(2-chloro-8-(3-(piperidin-1-yl)propoxy)quinolin-3-yl)methanimine oxide], for which the values for the IC50 against hBChE, on hMAO-A and against hAChE were 5.57 ± 0.46 µM, 113 ± 13.2 µM and 44.7 ± 4.8 µM, respectively.
`O=Cc1ccc2cccc(O)c2n1` [QN 30, 8-hydroxyquinoline-2-carbaldehyde] gave an IC50 on hMAO-B of 43.9 ± 3.4 µM.
